Here are results for 21 compounds from patent publication US20230391770A1, “METTL3 INHIBITORY COMPOUNDS” (Storm Therapeutics Limited, priority 2020, published 2023).

Molecules are shown by their SMILES.

The target of one test is METTL3/14 (Homo sapiens (Human), UniProt Q86U44). The test is described as follows: METTL3/14 methyltransferase biochemical assay (RapidFire mass spectrometry, METTL3_14 RFMS).
METTL3/14, sequence (Q86U44 whole entry): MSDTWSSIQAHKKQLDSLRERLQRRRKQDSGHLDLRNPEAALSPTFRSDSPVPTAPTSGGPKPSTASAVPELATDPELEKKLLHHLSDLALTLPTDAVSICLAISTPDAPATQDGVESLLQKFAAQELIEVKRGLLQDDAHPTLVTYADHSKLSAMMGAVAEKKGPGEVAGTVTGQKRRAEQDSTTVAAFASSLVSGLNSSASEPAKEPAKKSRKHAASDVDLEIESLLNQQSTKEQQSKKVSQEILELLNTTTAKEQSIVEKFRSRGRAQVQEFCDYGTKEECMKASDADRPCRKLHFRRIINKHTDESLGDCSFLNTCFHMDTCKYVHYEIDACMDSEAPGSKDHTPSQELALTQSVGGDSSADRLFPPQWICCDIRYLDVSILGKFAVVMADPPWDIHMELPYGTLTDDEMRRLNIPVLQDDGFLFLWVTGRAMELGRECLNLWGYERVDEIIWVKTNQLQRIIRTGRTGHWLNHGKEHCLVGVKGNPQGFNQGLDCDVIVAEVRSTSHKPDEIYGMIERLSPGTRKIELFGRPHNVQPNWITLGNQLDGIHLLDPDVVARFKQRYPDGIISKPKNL
METTL3/14, sequence (Q9HCE5 whole entry partner): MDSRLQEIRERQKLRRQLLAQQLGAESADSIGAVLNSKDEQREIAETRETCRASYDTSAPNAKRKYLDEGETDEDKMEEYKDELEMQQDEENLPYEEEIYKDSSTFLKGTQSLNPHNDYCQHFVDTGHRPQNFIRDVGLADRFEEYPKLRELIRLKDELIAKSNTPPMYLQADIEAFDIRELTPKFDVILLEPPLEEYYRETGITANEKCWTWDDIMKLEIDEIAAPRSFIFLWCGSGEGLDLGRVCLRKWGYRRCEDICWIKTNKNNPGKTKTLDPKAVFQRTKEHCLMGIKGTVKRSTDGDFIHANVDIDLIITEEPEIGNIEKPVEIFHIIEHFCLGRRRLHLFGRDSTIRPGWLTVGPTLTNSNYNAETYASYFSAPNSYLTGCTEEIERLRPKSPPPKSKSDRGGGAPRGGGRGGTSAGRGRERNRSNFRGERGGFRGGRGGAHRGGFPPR
Conditions: not given
As for the experimental part:
The enzymatic assay was established to determine IC50 values for inhibition of RNA methyltransferase activity. The enzyme used was full-length his-tagged METTL3 co-expressed with full length FLAG-tagged METTL14 in a baculovirus expression system. […] The reaction was incubated for further 60 minutes at room temperature, and then quenched by the addition of 40 μL 7.5% TCA with two internal product standards (D4-SAH and ^13C10-SAH). After termination, plates were sealed, centrifuged and stored at 4° C. until analysis. […] RNA methyltransferase activity was measured label free using the RapidFireTM mass spectrometry (RF/MS) platform. Stopped and stable assay plates were analyzed on the Agilent RF300 integrated autosampler/solid-phase extraction (SPE) system coupled to an ABSciex 4000 mass spectrometer for the generation of the product S-adenosyl homocysteine (SAH) and normalized to the ratio of signal of the two internal product standards, respectively. Solvent A was water containing 0.1% (v/v) TCA. Solvent B was acetonitrile/0.1% ammonium acetate (8:2, v/v).
With `Cn1ccc2cc(C(=O)NCc3cn4cc(CNCC5CCC5)ccc4n3)cnc21` [Example 16, N-[(6-{[(cyclobutylmethyl)amino]methyl}imidazo[1,2-a]pyridin-2-yl)methyl]-1-methyl-1H-pyrrolo[2,3-b]pyridine-5-carboxamide], the IC50 amounted to 1600 nM.
Compound `Cc1nc(C(=O)NCc2cn3cc(CNCC4CCCCC4)ccc3n2)cc(=O)n1C` [Example 2, N-[(6-{[(cyclohexylmethyl)amino]methyl}imidazo[1,2-a]pyridin-2-yl)methyl]-1,2-dimethyl-6-oxo-1,6-dihydropyrimidine-4-carboxamide] displayed an IC50 of 719 nM.
Still for that read-out and setting: the value for `c1ccc2c(-c3cn(Cc4cn5cc(CN(CC6CCC6)CC6CCC6)ccc5n4)nn3)cncc2c1` [Example 32, bis(cyclobutylmethyl)[(2-{[4-(isoquinolin-4-yl)-1H-1,2,3-triazol-1-yl]methyl}imidazo[1,2-a]pyridin-6-yl)methyl]amine] was 1260 nM; that for `N#Cc1ncc(F)cc1-c1cn(Cc2cn3cc(CN4CCC5(CCC5)C4)ccc3n2)nn1` [Example 42, 3-(1-{[6-({6-azaspiro[3.4]octan-6-yl}methyl)imidazo[1,2-a]pyridin-2-yl]methyl}-1H-1,2,3-triazol-4-yl)-5-fluoropyridine-2-carbonitrile] was 1180 nM; that for `O=C(NCc1cn2cc(CNCC3CCCCC3)ccc2n1)c1ccnc2[nH]ncc12` [Example 7, N-[(6-{[(cyclohexylmethyl)amino]methyl}imidazo[1,2-a]pyridin-2-yl)methyl]-1H-pyrazolo[3,4-b]pyridine-4-carboxamide] was 1400 nM.
Same read-out and setting: next, `O=C(NCc1cn2cc(CNCC3CCC3)ccc2n1)c1cnc2[nH]cnc2c1` [Example 13, N-[(6-{[(cyclobutylmethyl)amino]methyl}imidazo[1,2-a]pyridin-2-yl)methyl]-3H-imidazo[4,5-b]pyridine-6-carboxamide]: 1070 nM; `O=C(NCc1cn2cc(CNCC3CCC3)ccc2n1)c1cnc2[nH]ccc2c1` [Example 14, N-[(6-{[(cyclobutylmethyl)amino]methyl}imidazo[1,2-a]pyridin-2-yl)methyl]-1H-pyrrolo[2,3-b]pyridine-5-carboxamide]: 14.5 nM; `Cc1ncc2c(-c3cn(Cc4cn5cc(CNCC67CC(F)(C6)C7)ccc5n4)nn3)cccn12` [Example 36, ({3-fluorobicyclo[1.1.1]pentan-1-yl}methyl)({2-[(4-{3-methylimidazo[1,5-a]pyridin-8-yl}-1H-1,2,3-triazol-1-yl)methyl]imidazo[1,2-a]pyridin-6-yl}methyl)amine]: 105 nM.
On the same count and under the same terms, the value for `O=C(NCc1cn2cc(CNCC3CCC3)ccc2n1)c1ccc2[nH]ccc2c1` [Example 17, N-[(6-{[(cyclobutylmethyl)amino]methyl}imidazo[1,2-a]pyridin-2-yl)methyl]-1H-indole-5-carboxamide] was 3820 nM.
Take `COc1cnc(C#N)c(-c2cn(Cc3cn4cc(CNCC56CC(C5)C6)ccc4n3)nn2)c1` [Example 37, 3-{1-[(6-{[({bicyclo[1.1.1]pentan-1-yl}methyl)amino]methyl}imidazo[1,2-a]pyridin-2-yl)methyl]-1H-1,2,3-triazol-4-yl}-5-methoxypyridine-2-carbonitrile]: the IC50 is 11.2 nM.
Still for that read-out and setting: the value for `N#Cc1ncc(F)cc1-c1cn(Cc2cn3cc(CNCC45CC(F)(C4)C5)ccc3n2)nn1` [Example 43, 5-fluoro-3-{1-[(6-{[({3-fluorobicyclo[1.1.1]pentan-1-yl}methyl)amino]methyl}imidazo[1,2-a]pyridin-2-yl)methyl]-1H-1,2,3-triazol-4-yl}pyridine-2-carbonitrile] was 235 nM.
On the same count and under the same terms, next, `COc1cncc(C(=O)NCc2cn3cc(CNCC4CCC4)ccc3n2)c1` [Example 46, N-[(6-{[(cyclobutylmethyl)amino]methyl}imidazo[1,2-a]pyridin-2-yl)methyl]-5-methoxypyridine-3-carboxamide]: 74 nM.
As for `O=C(NCc1cn2cc(CNCC3CCCCC3)ccc2n1)c1cnc2ccccc2n1` [Example 6, N-[(6-{[(cyclohexylmethyl)amino]methyl}imidazo[1,2-a]pyridin-2-yl)methyl]quinoxaline-2-carboxamide], the IC50 turned out to be 151 nM.
With `COc1cnc(C(N)=O)c(-c2cn(Cc3cn4cc(CNCC56CC(F)(C5)C6)ccc4n3)nn2)c1` [Example 49, 3-{1-[(6-{[({3-fluorobicyclo[1.1.1]pentan-1-yl}methyl)amino]methyl}imidazo[1,2-a]pyridin-2-yl)methyl]-1H-1,2,3-triazol-4-yl}-5-methoxypyridine-2-carboxamide], the midpoint of inhibition, the IC50, lay at 85 nM. Against the preceding compound, the IC50 is about 1.8-fold lower.
Still for that read-out and setting: next, `O=C(NCc1cn2cc(CNCC3CC(F)(F)C3)ccc2n1)c1cnc2[nH]ccc2c1` [Example 15, N-{[6-({[(3,3-difluorocyclobutyl)methyl]amino}methyl)imidazo[1,2-a]pyridin-2-yl]methyl}-1H-pyrrolo[2,3-b]pyridine-5-carboxamide]: 27.3 nM.
On the same count and under the same terms, next, `O=C(NCc1cn2cc(CNCC3CCC3)ccc2n1)c1cccn2cncc12` [Example 10, N-[(6-{[(cyclobutylmethyl)amino]methyl}imidazo[1,2-a]pyridin-2-yl)methyl]imidazo[1,5-a]pyridine-8-carboxamide]: 36.5 nM.
Still for that read-out and setting: the value for `COc1cnc(C#N)c(-c2cn(Cc3cn4cc(CN5CCC6(CCC6)C5)ccc4n3)nn2)c1` [Example 40, 3-(1-{[6-({6-azaspiro[3.4]octan-6-yl}methyl)imidazo[1,2-a]pyridin-2-yl]methyl}-1H-1,2,3-triazol-4-yl)-5-methoxypyridine-2-carbonitrile] was 76 nM.
`COc1cnc(C#N)c(-c2cn(Cc3cn4cc(CNCC5CCC5)ccc4n3)nn2)c1` [Example 38, 3-{1-[(6-{[(cyclobutylmethyl)amino]methyl}imidazo[1,2-a]pyridin-2-yl)methyl]-1H-1,2,3-triazol-4-yl}-5-methoxypyridine-2-carbonitrile] had an IC50 of 57 nM. The IC50 values of the last two compounds are within 1.5-fold of each other.
Same read-out and setting: next, `O=C(NCc1cn2cc(CNCC3CCC3)ccc2n1)c1cccc2cncn12` [Example 11, N-[(6-{[(cyclobutylmethyl)amino]methyl}imidazo[1,2-a]pyridin-2-yl)methyl]imidazo[1,5-a]pyridine-5-carboxamide]: 104 nM.

Still in this test, the particulars now being: inhibition of RNA methyltransferase activity; 5 nM METTL3/14, 0.2 μM RNA substrate, 0.5 μM SAM; lower limit of the assay IC50=5 nM.
`Cc1ccc2nc(CNC(=O)c3nccc4[nH]ncc34)cn2c1` [Reference Example 1, N-({6-methylimidazo[1,2-a]pyridin-2-yl}methyl)-1H-pyrazolo[4,3-c]pyridine-4-carboxamide] displayed an IC50 of 5340 nM.
The same measure, in the same setting: next, `O=C(NCc1cn2cc(CNCC3CCCCC3)ccc2n1)c1cnc2ccccc2c1` [Example 8, N-[(6-{[(cyclohexylmethyl)amino]methyl}imidazo[1,2-a]pyridin-2-yl)methyl]quinoline-3-carboxamide]: 1190 nM.

As usually defined, the IC50 is the point on the concentration scale where inhibition reaches its midpoint.
